Six compounds from paper doi:10.1101/2025.04.19.649632v1 (biorxiv, 2025) can be followed below.

The structures appear in SMILES notation. pIC50: −log10 of the molar value. Where two headings read alike, the source gives them in different places.

In assay [1] the target is T1, USP32 FL (USP32FL, USP32WT) (Homo sapiens, UniProt Q8NFA0). It counts as biochemical. Particulars: 500 nM UbRhoMP, pH 7.6, 1 mM TCEP, RT; covalent.
For assay [2], the target named is T1, USP32 FL (USP32FL, USP32WT). The experiment in a line: UbRhoMP fluorescence intensity assay, […] min preincubation. The format is biochemical.
The target is the same in assay [3]. In words: biochemical. Conditions: read-out: kinact (s^-1).
Assay [4] shares this target. Conditions: read-out: Ki; covalent.

T1 sequence (Q8NFA0 whole entry): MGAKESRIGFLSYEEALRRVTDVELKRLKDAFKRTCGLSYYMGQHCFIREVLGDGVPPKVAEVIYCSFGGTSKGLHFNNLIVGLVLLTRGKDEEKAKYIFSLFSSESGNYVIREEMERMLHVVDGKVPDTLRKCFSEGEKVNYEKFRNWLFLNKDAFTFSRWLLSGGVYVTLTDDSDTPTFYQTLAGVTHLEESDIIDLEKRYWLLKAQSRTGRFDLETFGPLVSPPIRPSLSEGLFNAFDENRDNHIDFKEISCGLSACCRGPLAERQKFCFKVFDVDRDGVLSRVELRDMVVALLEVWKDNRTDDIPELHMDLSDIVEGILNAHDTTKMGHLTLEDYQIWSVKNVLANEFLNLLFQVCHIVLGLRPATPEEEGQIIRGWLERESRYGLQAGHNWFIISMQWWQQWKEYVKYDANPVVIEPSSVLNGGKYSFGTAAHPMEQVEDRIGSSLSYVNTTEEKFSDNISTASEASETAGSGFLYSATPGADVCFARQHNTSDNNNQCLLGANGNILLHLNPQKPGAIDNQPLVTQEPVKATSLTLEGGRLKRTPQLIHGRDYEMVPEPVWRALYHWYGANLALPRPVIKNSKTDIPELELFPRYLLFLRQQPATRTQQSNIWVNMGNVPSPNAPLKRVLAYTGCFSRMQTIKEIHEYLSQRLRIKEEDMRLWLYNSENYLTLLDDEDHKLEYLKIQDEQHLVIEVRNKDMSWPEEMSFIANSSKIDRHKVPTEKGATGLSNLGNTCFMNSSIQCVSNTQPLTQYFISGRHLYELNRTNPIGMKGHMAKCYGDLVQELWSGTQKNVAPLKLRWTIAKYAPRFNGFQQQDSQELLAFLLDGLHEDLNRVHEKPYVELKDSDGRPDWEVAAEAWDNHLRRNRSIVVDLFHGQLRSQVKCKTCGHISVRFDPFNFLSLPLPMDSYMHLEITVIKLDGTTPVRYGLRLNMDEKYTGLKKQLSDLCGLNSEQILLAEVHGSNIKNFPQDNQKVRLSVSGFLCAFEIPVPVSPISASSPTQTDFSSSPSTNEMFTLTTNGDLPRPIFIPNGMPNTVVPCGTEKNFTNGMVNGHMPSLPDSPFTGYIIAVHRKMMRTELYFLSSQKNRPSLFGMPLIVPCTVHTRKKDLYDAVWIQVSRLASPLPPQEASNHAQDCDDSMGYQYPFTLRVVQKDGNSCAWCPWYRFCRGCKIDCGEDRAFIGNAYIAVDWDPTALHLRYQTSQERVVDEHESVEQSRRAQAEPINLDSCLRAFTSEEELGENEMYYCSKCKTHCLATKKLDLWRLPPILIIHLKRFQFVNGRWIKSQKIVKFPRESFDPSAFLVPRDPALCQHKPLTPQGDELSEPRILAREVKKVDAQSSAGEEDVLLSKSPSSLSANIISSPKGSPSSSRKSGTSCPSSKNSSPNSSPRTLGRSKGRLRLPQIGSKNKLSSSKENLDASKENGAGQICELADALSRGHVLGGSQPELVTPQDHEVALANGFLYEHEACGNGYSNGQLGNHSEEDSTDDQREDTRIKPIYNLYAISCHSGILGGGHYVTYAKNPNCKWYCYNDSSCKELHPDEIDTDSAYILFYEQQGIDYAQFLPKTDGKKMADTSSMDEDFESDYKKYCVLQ

Broadly, the pIC50 is −log10 of the IC50, conventionally taken in molar units. Lower therefore signals a large IC50. Broadly, the kinact is the maximal first-order rate at which the target is inactivated. On to `Cc1noc(C)c1S(=O)(=O)N1CCC(C(=O)N2CC3CC2CN3C#N)CC1` (centres unmarked) [BB12CA282], for which the kinact/Ki in assay [1] is on record as 2,130 s^-1M^-1. Besides, the pIC50 in assay [2] is 7.03. For the same compound, the maximal inactivation rate constant (kinact) in assay [3] was found to be 0.000324 s⁻¹. In addition, the KI (inactivation) in assay [4] came to 152 nM.
As to `Cc1noc(C)c1S(=O)(=O)N1CCC(C(=O)N[C@@H]2CCN(C#N)C2)CC1` [BB01CA282, Huib32], the kinact/Ki in assay [1] is listed as 18,800 s^-1M^-1. In addition, the inactivation rate constant (kinact) in assay [3] came out at 0.000222 s⁻¹. In addition, the KI (inactivation) in assay [4] was 11.8 nM.
With `Cc1noc(C)c1S(=O)(=O)N1CCC(C(=O)N2CCC3(CCN(C#N)C3)C2)CC1` (centres unmarked) [BB14CA282], the kinact/Ki in assay [1] turned out to be 219 s^-1M^-1. Also, the negative logarithm of the IC50 (pIC50) in assay [2] is 6.29. For the same compound, in assay [3], the kinact was determined as 0.000984 s⁻¹. In assay [4], the KI (inactivation) came out at 4490 nM.
`CCN1/C(=C/C=C/C=C/C2=[N+](CCCCCC(=O)NCCCc3cn(CCOc4ccc(S(=O)(=O)N5CCC(C(=O)N[C@@H]6CCN(C#N)C6)CC5)cc4)nn3)c3ccc(S(=O)(=O)[O-])cc3C2(C)C)C(C)(C)c2cc(S(=O)(=O)O)ccc21` [Huib32*1] gave a negative logarithm of the IC50 (pIC50) in assay [2] (500 nM UbRhoMP, pH 7.6, 1 mM TCEP, RT, covalent) of 6.39.
As to `N#CN1CC[C@@H](NC(=O)C2CCN(S(=O)(=O)c3ccc(OCCN=[N+]=[N-])cc3)CC2)C1` [Huib32*], the pIC50 in assay [2] is 6.17.
On to `N#CN1CC[C@@H](NC(=O)C2CCN(S(=O)(=O)c3ccc(OCCn4cc(CNC(=O)CCCC[C@@H]5SC[C@@H]6NC(=O)N[C@@H]65)nn4)cc3)CC2)C1` [Huib32*2], for which the negative-log IC50 (pIC50) in assay [2] was 6.58. Compared with the last compound, the pIC50 is 0.41 log units higher.
